Source: patent publication US10179791B2, “Spiro-cyclic amine derivatives as S1P modulators” (AbbVie B.V., priority 2010, dated 2019)
Structures can show the parent of a compound that is named as a salt.

Experiments:
Format in all cases: cell-based
[1] = biological target: human S1P3 receptor (Homo sapiens (Human), UniProt Q99500); experiment: In vitro functional activity (agonism) on human S1P3 receptors, CHO-human-S1P3-Aequorin assay; details: aequorin luminescence, CHO K1 cells, 3 independent experiments, read-out: S1P3 pEC50 (converted)
Text: In Vitro Functional Activity (Agonism) on Human S1P3 Receptors
The CHO-human-S1P3-Aeqorin assay (CHO/Gα16/AEQ/h-S1P3) was established at Solvay Pharmaceuticals. The plasmid DNA coding for the S1P3 receptor (accession number in GenBank NM_005226 was purchased from UMR cDNA resource Centre (Rolla, Mo.). The pcDNA3.1/hS1P3 construct carrying the mitochondrially targeted apo-Aeqorin and Gal6 protein was transfected in CHO K1 cell-line.
(§1) Human-S1P3-Aequorin cells express mitochondrial targeted apo-Aequorin. Cells have to be loaded with coelanterazine, in order to reconstitute active Aequorin. After binding of agonists to the human S1P3 receptor the intracellular calcium concentration increases and binding of calcium to the apo-Aequorin/coelenterazine complex leads to an oxidation reaction of coelenterazine, which results in the production of apo-Aequorin, coelenteramide, CO2 and light ([…]max 469 nm). This luminescent response is dependent on the agonist concentration. Luminescence is measured using the MicroBeta Jet (Perkin Elmer). Agonistic effects of compounds are expressed as pEC50. Compounds were tested at a 10 points half log concentration range, and 3 independent experiments were performed in single point's measurements.

[2] = biological target: T1, human S1P1 (Homo sapiens (Human), UniProt P21453); experiment: In vitro functional activity (agonism) on human S1P1 receptors (method B), CHO-K1-human S1P1-cAMP assay
Procedure: In Vitro Functional Activity (Agonism) on Human S1P1 Receptors (Method B)
Recombinant CHO-K1 cells expressing human S1P1, grown to mid-log Phase in culture media without antibiotics, detached, centrifuged and re-suspended. For agonist testing cells are mixed with compound and Forskolin and incubated at room temperature. Cells are lyses and cAMP concentration are estimated, according to the manufacturer specification, With the HTRF kit from CIS-BIO International (cat no 62AM2PEB).
Compounds were tested at a 10 points half log concentration range duplicated in 1 experiment.

[3] = biological target: human S1P5 receptor (Homo sapiens (Human), UniProt Q9H228); experiment: In vitro functional activity (agonism) on human S1P5 receptors, CHO-human-S1P5-Aequorin assay; details: aequorin luminescence, CHO cells, 3 independent experiments
Text: In Vitro Functional Activity (Agonism) on Human S1P5 Receptors
as §1, with “The CHO-human-S1P5-Aeqorin assay was bought from Euroscreen, Brussels (Euroscreen, Technical dossier, Human Lysophospholid S1P5 (Edg8) receptor, DNA clone and CHO AequoScreen™ recombinant cell-line, catalog no: ES-593-A, September 2006). Human-S1P5-Aequorin” for “Human-S1P3-Aequorin”, “S1P5” for “S1P3”

[4] = biological target: T1, human S1P1; experiment: In vitro functional activity (agonism) on human S1P1 receptors (method A), CHO-K1-human-S1P1-Aequorin assay; details: agonism, determined using method A (aequorin luminescence, CHO-K1 cells), 2 independent experiments; read-out: S1P1^A pEC50 (converted)
Text: In Vitro Functional Activity (Agonism) on Human S1P1 Receptors (Method A)
as §1, with “Human-S1P1-Aequorin” for “Human-S1P3-Aequorin”, “S1P1” for “S1P3”, “2” for “3”

[5] = agonism, determined using method B (cAMP HTRF with Forskolin, CHO-K1 cells), read-out: S1P1^B pEC50 (converted)

T1 sequence (P21453 whole entry): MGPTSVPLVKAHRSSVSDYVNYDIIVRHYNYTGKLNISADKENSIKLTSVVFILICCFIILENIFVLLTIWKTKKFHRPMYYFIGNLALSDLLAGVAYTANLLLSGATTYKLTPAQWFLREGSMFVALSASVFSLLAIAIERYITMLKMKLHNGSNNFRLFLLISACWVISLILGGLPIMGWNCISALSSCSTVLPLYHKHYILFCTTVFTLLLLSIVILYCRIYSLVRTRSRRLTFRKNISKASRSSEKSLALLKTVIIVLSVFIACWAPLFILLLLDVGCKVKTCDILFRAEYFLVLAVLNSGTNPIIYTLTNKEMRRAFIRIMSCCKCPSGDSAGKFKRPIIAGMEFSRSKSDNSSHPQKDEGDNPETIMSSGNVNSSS
Sequence of human S1P5 receptor (Q9H228 whole entry): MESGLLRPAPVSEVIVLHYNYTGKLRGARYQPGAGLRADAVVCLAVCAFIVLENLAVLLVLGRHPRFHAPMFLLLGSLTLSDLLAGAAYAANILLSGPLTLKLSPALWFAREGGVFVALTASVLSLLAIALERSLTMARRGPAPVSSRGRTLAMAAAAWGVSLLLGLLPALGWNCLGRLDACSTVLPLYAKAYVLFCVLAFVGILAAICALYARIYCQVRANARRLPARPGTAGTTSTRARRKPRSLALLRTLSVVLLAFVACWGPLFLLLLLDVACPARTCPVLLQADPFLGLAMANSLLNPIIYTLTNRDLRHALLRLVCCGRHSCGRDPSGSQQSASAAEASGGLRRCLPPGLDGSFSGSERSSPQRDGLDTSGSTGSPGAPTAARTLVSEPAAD
Sequence of human S1P3 receptor (Q99500 whole entry): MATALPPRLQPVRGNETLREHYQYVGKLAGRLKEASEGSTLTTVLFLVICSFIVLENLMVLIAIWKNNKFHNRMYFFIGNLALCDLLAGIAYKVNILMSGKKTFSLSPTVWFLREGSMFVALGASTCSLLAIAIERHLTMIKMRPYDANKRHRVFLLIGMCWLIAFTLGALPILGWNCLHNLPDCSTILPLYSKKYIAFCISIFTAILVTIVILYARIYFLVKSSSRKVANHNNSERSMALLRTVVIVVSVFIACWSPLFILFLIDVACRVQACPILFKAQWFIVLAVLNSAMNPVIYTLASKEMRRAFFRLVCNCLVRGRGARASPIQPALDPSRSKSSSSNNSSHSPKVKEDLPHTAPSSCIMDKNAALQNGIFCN

SMILES | EC50 [1] [µM] | EC50 [2, 5] [µM] | S1P5 pEC50 [3] | EC50 [2] [µM] | EC50 [4] [µM]
O=C(O)CCN1CCC2(CC1)COc1cc(/C=C/c3c(Cl)cccc3Cl)ccc12 [Compound 160, 3-{6-[(E)-2-(2,6-Dichlorophenyl)ethenyl]-2H-spiro[1-benzofuran-3,4′-piperidine]-1′-yl}propanoic acid hydrochloride] | > 10 | > 3.16 | 7.7 | – | –
O=C(O)CCN1CCC2(CC1)COc1cc(OCc3c(F)cccc3Cl)ccc12 [Compound 38, 3-{6-[(2-Chloro-6-fluorphenyl)methoxy]-2H-spiro[1-benzofuran-3,4′-piperidine]-1′-yl}propanoic acid hydrochloride] | > 10 | – | 6.7 | > 3.16 | –
CCc1ccc(Cl)c(COc2ccc3c(c2)OCC32CCN(CCC(=O)O)CC2)c1Cl [Compound 68, 3-{6-[(2,6-Dichloro-3-ethylphenyl)methoxy]-2H-spiro[1-benzofuran-3,4′-piperidine]-1′-yl}propanoic acid hydrochloride] | > 10 | > 3.16 | 7.5 | – | –
O=C(O)CCCN1CCC2(CC1)COc1cc(OCc3c(Cl)cccc3Cl)ccc12 [Compound 128, 4-{6-[(2,6-Dichlorophenyl)methoxy]-2H-spiro[1-benzofuran-3,4′-piperidine]-1′-yl}butanoic acid hydrochloride] | > 10 | > 3.16 | 7.6 | – | –
O=C(O)CCN1CCC2(CC1)COc1cc(Oc3c(Cl)cccc3Cl)ccc12 [Compound 248, 3-[6-(2,6-Dichlorophenoxy)-2H-spiro[1-benzofuran-3,4′-piperidine]-1′-yl]propanoic acid hydrochloride] | > 10 | > 3.16 | 6.5 | – | –
CC(C)c1cccc(Cl)c1COc1ccc2c(c1)OCC21CCN(CCC(=O)O)CC1 [Compound 74, 3-(6-{[2-Chloro-6-(propan-2-yl)phenyl]methoxy}-2H-spiro[1-benzofuran-3,4′-piperidine]-1′-yl)propanoic acid hydrochloride] | – | – | – | > 3.16 | –
O=C(O)CCN1CCC2(CC1)COc1cc(C3CC3c3c(Cl)cccc3Cl)ccc12 (stereo not shown) [Compound 178, 3-{6-[2-(2,6-Dichlorophenyl)cyclopropyl]-2H-spiro[1-benzo-furan-3,4′-piperidine]-1′-yl}propanoic acid hydrochloride] | 3.16 | > 3.16 | 7.1 | – | –
Cc1cc(Cl)c(COc2ccc3c(c2)OCC32CCN(CCC(=O)O)CC2)c(Cl)c1 [Compound 59, 3-{6-[(2,6-Dichloro-4-methylphenyl)methoxy]-2H-spiro[1-benzofuran-3,4′-piperidine]-1′-yl)propanoic acid hydrochloride] | > 10 | > 3.16 | 7.8 | – | –
O=C(O)CCN1CCC2(CC1)COc1cc(OC3CCc4cc(Cl)cc(Cl)c43)ccc12 (stereo not shown) [Compound 79, 3-{6-[(5,7-Dichloro-2,3-dihydro-1H-inden-1-yl)oxy]-2H-spiro[1-benzofuran-3,4′-piperidine]-1′-yl}propanoic acid] | > 10 | 2 | 7.2 | – | –
CCc1ccc(Cl)c(C2CC2c2ccc3c(c2)OCC32CCN(CCC(=O)O)CC2)c1 (stereo not shown) [Compound 182, 3-{6-[2-(2-Chloro-5-ethylphenyl)cyclopropyl]-2H-spiro[1-benzofuran-3,4′-piperidine]-1′-yl}propanoic acid hydrochloride] | > 10 | > 3.16 | 7.4 | – | –
CC(CN1CCC2(CC1)COc1cc(OCc3c(Cl)cccc3Cl)ccc12)C(=O)O (stereo not shown) [Compound 100, 3-{6-[(2,6-Dichlorophenyl)methoxy]-2H-spiro[1-benzofuran-3,4′-piperidine]-1′-yl}-2-methylpropanoic acid hydrochloride] | > 10 | > 3.16 | 7 | – | –
CCc1cccc(Cl)c1COc1ccc2c(c1)OCC21CCN(CC(=O)O)CC1 [Compound 111, 2-{6-[(2-Chloro-6-ethylphenyl)methoxy]-2H-spiro[1-benzofuran-3,4′-piperidine]-1′-yl}acetic acid hydrochloride] | 2 | – | 7.6 | – | > 10
O=C(O)CCN1CCCC2(COc3cc(OCc4c(Cl)cccc4Cl)ccc32)C1 (stereo not shown) [Compound 321, 3-{6-[(2,6-Dichlorophenyl)methoxy]-2H-spiro[1-benzofuran-3,3′-piperidine]-1′-yl}propanoic acid hydrochloride] | > 10 | – | 7.1 | – | > 31.6
CC(C)c1cccc(Cl)c1COc1ccc2c(c1)OCC21CCN(CCCC(=O)O)CC1 [Compound 127, 4-(6-{[2-Chloro-6-(propan-2-yl)phenyl]methoxy}-2H-spiro[1-benzofuran-3,4′-piperidine]-1′-yl)butanoic acid hydrochloride] | 2.51 | – | 6.9 | – | 7.94
Cc1c(OCc2c(Cl)cccc2Cl)ccc2c1OCC21CCN(CCC(=O)O)CC1 [Compound 129, 3-{6-[(2,6-Dichlorophenyl)methoxy]-7-methyl-2H-spiro[1-benzofuran-3,4′-piperidine]-1′-yl}propanoic acid hydrochloride] | > 10 | > 3.16 | 7.5 | – | –
O=C(O)CCCN1CCC2(CC1)COc1cc(OCc3c(Cl)cccc3C3CC3)ccc12 [Compound 121, 4-{6-[(2-Chloro-6-cyclopropylphenyl)methoxy]-2H-spiro[1-benzofuran-3,4′-piperidine]-1′-yl}butanoic acid hydrochloride] | > 10 | – | 7.1 | – | 5.01
CCCCCCCCOc1ccc2c(c1F)OCC21CCN(CCC(=O)O)CC1 [Compound 277, 3-[7-fluoro-6-(octyloxy)-2H-spiro[1-benzofuran-3,4′-piperidine]-1′-yl]propanoic acid] | > 10 | – | 7.8 | – | 0.0794
O=C(O)CCN1CCC2(CC1)COc1cc(/C=C/c3ccccc3F)ccc12 [Compound 171, 3-{6-[(E)-2-(2-Fluorophenyl)ethenyl]-2H-spiro[1-benzofuran-3,4′-piperidine]-1′-yl}propanoic acid hydrochloride] | > 10 | > 3.16 | 6.5 | – | –
CCc1ccc(Cl)c(COc2ccc3c(c2)OCC32CCN(CCC(=O)O)CC2)c1 [Compound 51, 3-{6-[(2-Chloro-5-ethylphenyl)methoxy]-2H-spiro[1-benzofuran-3,4′-piperidine]-1′-yl}propanoic acid hydrochloride] | > 10 | > 3.16 | 6.6 | – | –
